Reference: the supplement of paper PMC10307832

How the values were obtained:
Experiment in all cases: relative viability (nuclei count vs DMSO), 5 days (fraction); higher = more cells survive
Dabrafenib + Pictilisib = compound: CC(C)(C)c1nc(-c2cccc(NS(=O)(=O)c3c(F)cccc3F)c2F)c(-c2ccnc(N)n2)s1 [Dabrafenib] + CS(=O)(=O)N1CCN(Cc2cc3nc(-c4cccc5[nH]ncc45)nc(N4CCOCC4)c3s2)CC1 [Pictilisib] (partner 1 µM)
Outline: (§1)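 Cells from lung cancer lines were seeded into 1536-well plates and, one day later, dosed by pin tool. Treatments were either a single drug or a fixed dose of an anchor drug with five library-drug doses (not always all listed) in √10 steps. After 5 days, nuclei were stained in a one-step fixation (final 0.05% Triton X-100, 1% formaldehyde, 1 ug/ml Hoechst) and counted on 4× images, and relative viability is the treated-to-vehicle nuclei ratio, as the median of duplicate plates.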

Dabrafenib + Decitabine = compound: CC(C)(C)c1nc(-c2cccc(NS(=O)(=O)c3c(F)cccc3F)c2F)c(-c2ccnc(N)n2)s1 [Dabrafenib] + Nc1ncn([C@H]2C[C@H](O)[C@@H](CO)O2)c(=O)n1 [Decitabine] (partner 2 µM)
Outline: as §1

VX-702 + Trametinib = compound: NC(=O)c1ccc(N(C(N)=O)c2c(F)cccc2F)nc1-c1ccc(F)cc1F [VX-702] + CC(=O)Nc1cccc(-n2c(=O)n(C3CC3)c(=O)c3c(Nc4ccc(I)cc4F)n(C)c(=O)c(C)c32)c1 [Trametinib] (partner 0.02 µM)
Outline: as §1

VX-702 + AZD7762 = compound: NC(=O)c1ccc(N(C(N)=O)c2c(F)cccc2F)nc1-c1ccc(F)cc1F [VX-702] + NC(=O)Nc1cc(-c2cccc(F)c2)sc1C(=O)N[C@H]1CCCNC1 [AZD7762] (partner 0.2 µM)
Outline: as §1

Cell Line	relative viability (Dabrafenib + Pictilisib; first compound 0.009487 µM)	relative viability (Dabrafenib + Pictilisib; first compound 0.03 µM)	relative viability (Dabrafenib + Pictilisib; first compound 0.09487 µM)	relative viability (Dabrafenib + Pictilisib; first compound 0.3 µM)	relative viability (Dabrafenib + Decitabine; first compound 0.009487 µM)	relative viability (Dabrafenib + Decitabine; first compound 0.03 µM)	relative viability (Dabrafenib + Decitabine; first compound 0.09487 µM)	relative viability (Dabrafenib + Decitabine; first compound 0.3 µM)	relative viability (VX-702 + Trametinib; first compound 0.02 µM)	relative viability (VX-702 + Trametinib; first compound 0.2 µM)	relative viability (VX-702 + Trametinib; first compound 0.6325 µM)	relative viability (VX-702 + Trametinib; first compound 2 µM)	relative viability (VX-702 + AZD7762; first compound 0.02 µM)	relative viability (VX-702 + AZD7762; first compound 0.2 µM)	relative viability (VX-702 + AZD7762; first compound 0.6325 µM)	relative viability (VX-702 + AZD7762; first compound 2 µM)	relative viability (Dabrafenib + Pictilisib; first compound 0.003 µM)	relative viability (Dabrafenib + Decitabine; first compound 0.003 µM)
NCI-H1792	0.307	0.237	0.311	0.242	0.651	0.557	0.566	0.287	0.425	0.394	0.397	0.482	0.635	0.669	0.707	0.706		
NCI-H1793	0.313	0.329	0.392	0.323	0.531		0.521	0.418	0.438		0.452	0.451	0.663		0.542	0.379	0.366	
NCI-H1915	1.06	0.862	0.758	0.578	0.262	0.256	0.255	0.243	0.324	0.294	0.302	0.319	0.697	0.728	0.712	0.718	0.902	0.264
NCI-H1944	0.343	0.284	0.438	0.368	0.46	0.436	0.467	0.364	0.426	0.401	0.398	0.378	0.565	0.491	0.557	0.358	0.36	0.45
NCI-H1975	0.308	0.27	0.257	0.234	0.413	0.355	0.4	0.312	0.383	0.35	0.29	0.329	0.663	0.741	0.763	0.815	0.267	0.373
NCI-H1993	0.789	0.723	0.625	0.728	0.719	0.538	0.68	0.618	0.607	0.495	0.527	0.576	0.434	0.694	0.736	0.65	0.811	0.564
NCI-H2085	0.481	0.328	0.452	0.462	0.575	0.559	0.592	0.518	0.547	0.537	0.588	0.374	1.04	1.01	1.06	1.03	0.381	0.552
NCI-H2087	0.819	1.08	0.728	0.703	0.305	0.352	0.278	0.213	0.201	0.181	0.186	0.228	1.53	1.35	1.54	1.34	0.38	
NCI-H2126	0.514	0.529	0.543	0.595	0.591	0.57	0.653	0.609	0.511	0.542	0.547	0.544	0.995	0.979	1.02	1.05	0.46	0.578
NCI-H2170	0.394	0.293	0.311	0.323	0.472	0.423	0.42	0.36	0.999	0.891	0.958	0.987	1.05	0.834	1.08	0.941	0.251	0.47
NCI-H2347	0.6	0.381	0.57	0.459	0.657	0.598	0.706	0.616	0.188	0.314	0.384	0.282	0.746	0.8	0.787	0.699	0.693	
NCI-H2405	0.305		0.314	0.316	0.742	0.529	0.692	0.574	0.58	0.593	0.615	0.618	0.822	0.766	0.784	0.826		
NCI-H3122	0.629	0.793	0.692	0.719	0.404	0.397	0.429	0.373	0.24	0.201	0.206	0.203	1.07	1.05	1.03	1.01	0.581	0.567
PC-3 [JPC-3]	0.982	0.916	0.745	0.818	0.865	0.872	0.812	0.804	0.644	0.76	0.768	0.855	0.797	0.853	0.894	0.84	0.642	
PC-14	0.862	0.655	0.688	0.696	0.276	0.24	0.219	0.147	0.781	0.693	0.825	0.925	0.411	0.353	0.37	0.265	0.761	0.172
RERF-LC-KJ	0.592	0.455	0.616	0.748	0.724	0.655	0.731	0.705	0.749	0.872	0.86	0.919	1.25	0.963	1.11	1.09	0.575	0.792
